The experiment deals with Trypsin (Homo sapiens, UniProt P07477+P07478+P35030). In words: Inhibition of trypsin (unknown origin). The format is protein assay.
`CC[C@H](C)[C@@H](NC(=O)[C@@H](O)Cc1ccc(O)c(Cl)c1)C(=O)N1[C@H](C(=O)NCCCCNC(=N)N)C[C@@H]2CC[C@@H](O)C[C@@H]21` registered an IC50 of 2.8 µM.
Molecule `N=C(N)NCCCCNC(=O)[C@@H]1C[C@@H]2CC[C@@H](O)C[C@@H]2N1C(=O)[C@H](Cc1ccccc1)NC(=O)[C@@H](O)Cc1ccc(O)cc1` showed an IC50 of 0.5 µg/mL.
Molecule `CC(C)C[C@@H](NC(=O)[C@H](O)Cc1ccc(O)c(Br)c1)C(=O)N1[C@H](C(=O)NCCCCNC(=N)N)C[C@@H]2CC[C@@H](O)C[C@@H]21` displayed a 50% inhibitory concentration (IC50) of 4.1 µM. That is a single-digit micromolar value.
Turning to `CC(C)C[C@@H](NC(=O)[C@H](O)Cc1ccc(O)c(Cl)c1)C(=O)N1[C@H](C(=O)NCCCCNC(=N)N)C[C@@H]2CC[C@@H](O)C[C@@H]21`, the half-maximal inhibitory concentration (IC50) was determined as 4.3 µM.

In general, IC50 refers to the midpoint of a concentration-inhibition curve. A lower IC50 goes with greater potency.

The values above are taken from ChEMBL document CHEMBL2384948, “Aeruginosins from a Microcystis sp. bloom material collected in Varanasi, India” (J Nat Prod, 2013).
